This is an account of results in patent US7115566B2, “Compounds and method for the prevention and treatment of diabetic retinopathy” (University of Florida, priority 1997, dated 2006).

One series deals with cytomegalovirus (CMV). Particulars: cited from earlier work.
Series [1] has as its system retinal neovascularization. The series can be described thus: intravitreal IGF-1 rabbit model of retinal angiogenesis. Type of series: in vivo, pigmented rabbits. Particulars: for ophthalmoscopy findings: all rabbits. The method, then: Pigmented rabbits were selected for study after considering the ocular anatomy, animal supply and established use of the species in ophthalmology. Growth factor was injected into the vitreous of pigmented rabbits (n=30) as previously described. Briefly, rabbits were anesthetized with ketamine and xylazine and a 30 g needle was used to withdraw 80 μl of fluid from the anterior eye chamber under an operating microscope. Then a 30 g needle was used to administer 0.1 ml of balanced salt solution containing 600 μg of IGF-1 adjacent to the surface of the retina near the optic nerve head. The rabbits were placed in a supine position for 30–60 minutes to facilitate solution dispersal onto the vascularized medullary ray and disc. Control animals (n=10) received the same dose of heat-inactivated protein (IGF-I held at 100° C. for 30 min). Animals were periodically examined using indirect ophthalmoscopy, fundus photography, and fluorescein angiography from days 2 through 21.
The temporal sequence of the anatomical changes seen in the IGF 1-injected eyes is as follows. […] The fundus of control eyes remained normal in appearance. […] Numerous distended vessels with edematous endothelial cells were found on the surface of the retina along with extensive proliferation of their extracellular matrix. […] Reduplication of the basement membrane, a strong indicator of endothelial cell hyperreactivity, was a consistent finding in all IGF-1 treated eyes. Endothelial cell mitosis was validated using antibody to proliferating cell nuclear antigen. Systemic unpackaged peptide, e.g. lanreotide can be tested for its ability to inhibit IGF-1 induced neovascularization in this rabbit model.

The conditions of series [2]: continuous infusion pump for 4 weeks, cited from earlier work.
For series [3] the following is noted: compared with octreotide; cited from earlier work.
The conditions of series [4]: in vivo; cited from earlier work.
For series [5] the following is noted: after a similar dose (200 μg/kg); cited from earlier work.
A further series concerns insulin secretion. As to conditions: normal physiological conditions; cited from earlier work.
Series [6] relates to chorioallantoic membrane of the developing chick embryo. As to conditions: chick chorioallantoic membrane assay; cited from earlier work.
A short description of series [7]: octreotide in patients with severe proliferative diabetic retinopathy (Grant, 1987–1994).
A short description of series [8]: pilot study of continuous octreotide infusion to prevent progression of diabetic retinopathy. Format: in vivo, human.
In series [9] the test system is human retinal endothelial cells (HREC). The series can be described thus: proliferation and [3H] thymidine incorporation in growth factor stimulated HREC. Type of series: cell-based. For orientation: Dividing cells build labelled thymidine or BrdU into new DNA.
For series [10] the following is noted: several months of continuous infusion; 4 patients; cited from earlier work.
Setting [11] is: six patients, 25 to 100 μg three times a day.

As to `Nc1nc(O)c2ncn(COC(CO)CO)c2n1` [ganciclovir], in the series with cytomegalovirus (CMV) (at autopsy), the CMV-encephalitis entry was “widespread CMV-encephalitis”. Besides, the “treatment of CMV retinitis” value in the series with cytomegalovirus (CMV) (verified at autopsy) is listed as “successful treatment of CMV retinitis”.
In the case of “IGF-1: insulin-like growth factor 1, injected intravitreally to induce retinal neovascularization”, the ophthalmoscopy findings result was “hyperemia with vascular engorgement” in [1] (3 days after intravitreal injection of 600 μg); “Vascular tortuosity, intraretinal hemorrhage, and severe increased hyperemia surrounding the optic disc” in series [1] (by day 7); “Fibrosis developed over the optic disc and medullary ray” in series [1] (by day 21). Moreover, the “microscopic findings on the surface of the retina” value in series [1] (all eyes treated) is “abnormal vessels were observed on the surface of the retina”.
Consider lanreotide, for which, in series [2], the disease regressed is on record as 2 patients. The disease progression halted in series [2] (subjects who completed dosing) is 8 of 8. Also, the clinical tolerance entry in [3] is given as “better tolerated than octreotide”. Further, in series [4], the excreted intact is on record as above 90% and the “stability of the peptide” value was “stable”. The “LNT levels in rat eyes” value in [5] is “unable to detect significant LNT levels”. Also, in the series with insulin secretion, the “effect on insulin secretion” value was “suppress insulin secretion”. Also, the inhibition of angiogenesis entry in [6] is “more potent in inhibiting angiogenesis compared to the natural somatostatin tetradecapeptide”.
For the molecule octreotide, in series [7] (all seven study patients), the HgA1c entry was “reductions”, the sense of well-being result was “improved” and the visual acuity entry is “improved”. Moreover, in series [7] (seventh patient), the posterior pole neovascularization entry was “not affected” and the “side effects leading to stopping the drug” value is on record as “gastrointestinal side effects”. Further, the iris neovascularization result in series [7] (seventh patient with severe bilateral neovascular glaucoma) was “regressed completely”. In series [7] (setting [11]), the “disease progression during treatment period” value is recorded as “None of the six patients showed disease progression” and the “regression of NVD” value is given as “four”. In addition, the HgA1c result in series [8] (four octreotide-treated subjects, within the first 6 months of therapy) is “normalized”. In addition, the “suppression of GH and IGF-1 levels into the hypopituitary range” value in series [8] (four patients) is recorded as “not achieved in any patient”. Further, in series [8] (four patients, continuous infusion, doses up to 5000 μg/day), the “clinical or angiographic improvement” value is “no patient showed clear clinical or angiographic improvement”. Also, in [8] (four patients, in at least one eye), the “progression to high risk characteristics requiring laser therapy” value is on record as “Laser therapy was initiated in all four patients”. The visual acuity result in series [8] (patients receiving octreotide) is “statistically significant improvement”. Further, in series [9] (IGF-1 and b-FGF stimulated HREC), the “[3H] thymidine incorporation” value is on record as “dose-dependent inhibition”. Moreover, the “proliferation of HREC” value in series [9] (IGF-1 stimulated cultures) is listed as “significantly decreased”. In series [9] (b-FGF stimulated cultures), the “inhibitory effect on proliferation of HREC” value is on record as 40–45%. Besides, the cell proliferation result in [9] (cells grown in control medium) is reported as “minimal effect”. Further, the retinal function result in series [10] is listed as “improved”.
